Test results published in patent publication US9533985B2, “Sulfonamide derivative and medicinal use thereof” (EA Pharma Co., Ltd., priority 2012, dated 2017).

Tests used:
Type in all cases: cell-based
α4β1 integrin = α4β1 integrin (Homo sapiens (Human), UniProt P05556+P13612); test: VCAM-1/α4β1 integrin binding inhibitory activity evaluation test (Jurkat cell adhesion to VCAM-1/Fc); settings: Jurkat cells binding to recombinant human VCAM-1/Fc
Method in brief: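 Jurkat cells (5×10^5/well) added with compounds to plates coated with recombinant human VCAM-1/Fc (1 μg/mL coating), in DMEM binding buffer with 40 mM HEPES, 0.2% BSA and 4 mM MnCl2, 15-60 min at 30° C. Bound cells lysed and quantified by LDH absorbance at 490 nm; IC50 relative to compound-free wells, in duplicate.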

α4β7 integrin [1] = molecular target: T1, α4β7 integrin (Homo sapiens (Human), UniProt P13612+P26010); test: MAdCAM-1/α4β7 integrin binding inhibitory activity evaluation test (RPMI-8866 cell adhesion to MAdCAM-1/Fc); settings: for Selectivity: IC50 in VCAM-1/α4β1 test divided by IC50 in MAdCAM-1/α4β7 test; for IC50: RPMI-8866 cells binding to recombinant mouse MAdCAM-1/Fc, no serum
T1 sequence (P13612 34-1032): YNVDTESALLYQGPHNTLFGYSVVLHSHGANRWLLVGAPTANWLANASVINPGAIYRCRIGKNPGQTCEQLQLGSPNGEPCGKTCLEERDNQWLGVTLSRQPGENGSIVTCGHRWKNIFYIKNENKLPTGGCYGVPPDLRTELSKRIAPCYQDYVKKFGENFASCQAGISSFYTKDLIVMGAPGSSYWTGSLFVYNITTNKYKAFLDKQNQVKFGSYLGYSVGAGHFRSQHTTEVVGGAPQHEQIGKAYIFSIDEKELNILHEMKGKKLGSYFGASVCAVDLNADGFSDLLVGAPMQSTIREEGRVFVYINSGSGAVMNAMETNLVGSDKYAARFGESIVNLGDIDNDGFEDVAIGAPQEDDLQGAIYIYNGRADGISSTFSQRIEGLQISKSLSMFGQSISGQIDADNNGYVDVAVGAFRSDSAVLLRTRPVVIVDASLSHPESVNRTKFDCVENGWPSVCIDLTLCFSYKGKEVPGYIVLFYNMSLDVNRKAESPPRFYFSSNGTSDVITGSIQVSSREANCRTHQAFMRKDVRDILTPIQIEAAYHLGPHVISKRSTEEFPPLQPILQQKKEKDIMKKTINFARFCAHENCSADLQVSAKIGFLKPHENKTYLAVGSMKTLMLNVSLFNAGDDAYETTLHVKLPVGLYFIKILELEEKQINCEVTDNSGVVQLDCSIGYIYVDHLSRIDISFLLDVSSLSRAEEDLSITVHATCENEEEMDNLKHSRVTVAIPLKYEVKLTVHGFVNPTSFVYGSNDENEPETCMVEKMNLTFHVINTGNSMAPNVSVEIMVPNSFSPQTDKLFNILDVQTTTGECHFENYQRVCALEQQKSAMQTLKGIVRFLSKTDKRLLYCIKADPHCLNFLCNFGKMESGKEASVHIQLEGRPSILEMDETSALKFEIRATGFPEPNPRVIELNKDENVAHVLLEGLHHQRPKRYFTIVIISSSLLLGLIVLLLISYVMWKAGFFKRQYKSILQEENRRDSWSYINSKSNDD
T1 sequence (P26010 20-798): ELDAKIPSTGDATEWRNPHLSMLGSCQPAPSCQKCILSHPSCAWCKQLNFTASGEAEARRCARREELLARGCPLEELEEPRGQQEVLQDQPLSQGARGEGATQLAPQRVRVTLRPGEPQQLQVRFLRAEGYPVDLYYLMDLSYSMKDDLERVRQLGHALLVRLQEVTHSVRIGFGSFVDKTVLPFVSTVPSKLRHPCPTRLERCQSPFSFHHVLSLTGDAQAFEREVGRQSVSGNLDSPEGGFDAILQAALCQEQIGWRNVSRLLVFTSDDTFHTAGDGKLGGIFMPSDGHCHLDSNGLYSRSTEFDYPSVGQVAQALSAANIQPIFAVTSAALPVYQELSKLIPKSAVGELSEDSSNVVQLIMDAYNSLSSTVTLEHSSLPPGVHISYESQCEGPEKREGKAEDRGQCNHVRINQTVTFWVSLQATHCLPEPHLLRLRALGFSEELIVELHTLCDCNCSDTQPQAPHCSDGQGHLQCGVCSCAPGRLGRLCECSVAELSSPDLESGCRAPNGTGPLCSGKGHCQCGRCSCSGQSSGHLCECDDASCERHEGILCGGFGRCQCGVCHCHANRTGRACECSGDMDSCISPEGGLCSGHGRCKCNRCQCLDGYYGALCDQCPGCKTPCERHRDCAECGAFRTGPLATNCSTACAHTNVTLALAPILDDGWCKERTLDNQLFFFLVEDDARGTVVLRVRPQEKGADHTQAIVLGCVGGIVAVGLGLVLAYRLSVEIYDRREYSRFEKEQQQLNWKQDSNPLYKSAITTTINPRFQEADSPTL
Method in brief: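 Human RPMI-8866 cells (α4β7+) adhered for 15–60 min at 30 °C to plates coated with recombinant mouse MAdCAM-1/Fc, in DMEM binding buffer with 4 mM MnCl2 and test compound. Bound cells were quantified via LDH activity (A490) after lysis. IC50 is the 50% inhibition of binding relative to compound-free wells.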

α4β7 integrin [2] = molecular target: T1, α4β7 integrin; test: MAdCAM-1/α4β7 integrin binding inhibitory activity evaluation test in the presence of serum (1); settings: RPMI-8866 cells binding to mouse MAdCAM-1/Fc, human serum at final concentration of 50%; read-out: α4β7 with serum added, IC50
Method in brief: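 Plates were coated with recombinant mouse MAdCAM-1/Fc (1 μg/mL, pH 9.6). Human RPMI-8866 B cells (α4β7-expressing) bound for 15–60 min at 30 °C in DMEM/HEPES/BSA with 4 mM MnCl2 and 50% human serum, with test substance present. Bound cells were quantified by LDH absorbance at 490 nm, run in duplicate, and IC50 was calculated relative to no-compound wells.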

Chain of α4β1 integrin (P13612 34-1032): as the sequence (P13612 34-1032) above
Chain of α4β1 integrin (P05556 21-798): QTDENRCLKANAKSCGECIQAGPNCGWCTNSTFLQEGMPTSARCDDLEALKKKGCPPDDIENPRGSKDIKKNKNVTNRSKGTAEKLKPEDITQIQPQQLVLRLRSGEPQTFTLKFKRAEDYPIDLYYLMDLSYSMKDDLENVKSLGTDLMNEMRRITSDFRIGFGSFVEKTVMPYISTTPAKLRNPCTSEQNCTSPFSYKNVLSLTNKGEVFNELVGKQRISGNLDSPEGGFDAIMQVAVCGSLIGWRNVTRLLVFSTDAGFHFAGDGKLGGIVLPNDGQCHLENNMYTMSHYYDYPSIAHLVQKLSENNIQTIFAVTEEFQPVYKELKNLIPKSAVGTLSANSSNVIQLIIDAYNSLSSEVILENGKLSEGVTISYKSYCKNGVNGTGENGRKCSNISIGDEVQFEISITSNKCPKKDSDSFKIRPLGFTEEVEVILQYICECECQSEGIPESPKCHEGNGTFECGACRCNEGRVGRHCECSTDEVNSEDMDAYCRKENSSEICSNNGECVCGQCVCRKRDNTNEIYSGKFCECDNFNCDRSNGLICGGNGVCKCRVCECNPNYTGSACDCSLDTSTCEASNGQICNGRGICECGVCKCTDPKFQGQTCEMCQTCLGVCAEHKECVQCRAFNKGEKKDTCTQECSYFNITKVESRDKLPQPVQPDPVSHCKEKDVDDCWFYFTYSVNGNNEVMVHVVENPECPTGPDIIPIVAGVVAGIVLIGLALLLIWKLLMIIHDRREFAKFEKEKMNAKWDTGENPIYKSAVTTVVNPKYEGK

Compound | IC50 (α4β1 integrin) [nM] | Selectivity (α4β7 integrin [1]) | IC50 (α4β7 integrin [1]) [nM] | IC50 (α4β7 integrin [2]) [nM]
Cn1c(=O)n(-c2ccc(C[C@H](NC(=O)c3c(F)cc(NS(=O)(=O)c4ccc(-n5cccn5)cc4)cc3F)C(=O)O)cc2)c(=O)c2ccncc21 [Example 62, N-[2,6-Difluoro-4-({[4-(1H-pyrazol-1-yl)phenyl]sulfonyl}amino)benzoyl]-4-(1-methyl-2,4-dioxo-1,4-dihydropyrido[3,4-d]pyrimidin-3(2H)-yl)-L-phenylalanine] | 100 | 160 | 0.64 | 13
Cn1ccc(=O)n(-c2ccc(C[C@H](NC(=O)c3c(F)cc(NS(=O)(=O)c4ccc(-c5cncnc5)cn4)cc3F)C(=O)O)cc2)c1=O [Example 63, N-(2,6-Difluoro-4-{[(5-pyrimidin-5-yl-pyridin-2-yl)sulfonyl]amino}benzoyl)-4-(3-methyl-2,6-dioxo-3,6-dihydropyrimidin-1(2H)-yl)-L-phenylalanine] | 480 | 600 | 0.8 | 11
Cn1ccc(=O)n(-c2ccc(C[C@H](NC(=O)c3c(F)cc(NS(=O)(=O)c4ccc(-n5cccc5)cc4)cc3F)C(=O)O)cc2)c1=O [Example 64, N-[2,6-Difluoro-4-({[4-(1H-pyrrol-1-yl)phenyl]sulfonyl}amino)benzoyl]-4-(3-methyl-2,6-dioxo-3,6-dihydropyrimidin-1(2H)-yl)-L-phenylalanine] | 1500 | 750 | 2 | 22
Cn1c(=O)n(-c2ccc(C[C@H](NC(=O)c3c(F)cc(NS(=O)(=O)c4ccc(-c5ccnc(F)c5)cc4)cc3F)C(=O)O)cc2)c(=O)c2ccncc21 [Example 68, N-[2,6-Difluoro-4-({[4-(2-fluoropyridin-4-yl)phenyl]sulfonyl}amino)benzoyl]-4-(1-methyl-2,4-dioxo-1,4-dihydropyrido[3,4-d]pyrimidin-3(2H)-yl)-L-phenylalanine] | 120 | 920 | 0.13 | 9.8
Cn1c(=O)n(-c2ccc(C[C@H](NC(=O)c3c(F)cc(NS(=O)(=O)c4ccc(C5=CCNCC5)cc4)cc3F)C(=O)O)cc2)c(=O)c2ccncc21 [Example 69, N-[2,6-Difluoro-4-({[4-(1,2,3,6-tetrahydropyridin-4-yl)phenyl]sulfonyl}amino)benzoyl]-4-(1-methyl-2,4-dioxo-1,4-dihydropyrido[3,4-d]pyrimidin-3(2H)-yl)-L-phenylalanine] | 31 | 150 | 0.21 | 1.3
Cc1cc(-c2ccc(S(=O)(=O)Nc3cc(F)c(C(=O)N[C@@H](Cc4ccc(-n5c(=O)c6ccncc6n(C)c5=O)cc4)C(=O)O)c(F)c3)cc2)cc(C)n1 [Example 70, N-[4-({[4-(2,6-Dimethylpyridin-4-yl)phenyl]sulfonyl}amino)-2,6-difluorobenzoyl]-4-(1-methyl-2,4-dioxo-1,4-dihydropyrido[3,4-d]pyrimidin-3(2H)-yl)-L-phenylalanine] | 270 | 660 | 0.41 | 21
Cn1c(=O)n(-c2ccc(C[C@H](NC(=O)c3c(F)cc(NS(=O)(=O)c4ccc(-n5ccnn5)cn4)cc3F)C(=O)O)cc2)c(=O)c2ccncc21 [Example 71, N-[2,6-Difluoro-4-({[5-(1H-1,2,3-triazol-1-yl)pyridin-2-yl]sulfonyl}amino)benzoyl]-4-(1-methyl-2,4-dioxo-1,4-dihydropyrido[3,4-d]pyrimidin-3(2H)-yl)-L-phenylalanine] | 22 | 220 | 0.098 | 0.72
Cn1ccc(=O)n(-c2ccc(C[C@H](NC(=O)c3c(F)cc(NS(=O)(=O)c4ccc(-n5nccn5)cn4)cc3F)C(=O)O)cc2)c1=O [Example 72, N-[2,6-Difluoro-4-({[5-(2H-1,2,3-triazol-2-yl)pyridin-2-yl]sulfonyl}amino)benzoyl]-4-(3-methyl-2,6-dioxo-3,6-dihydropyrimidin-1(2H)-yl)-L-phenylalanine] | 400 | 250 | 1.6 | 23
Cc1cc(-c2ccc(S(=O)(=O)Nc3cc(F)c(C(=O)N[C@@H](Cc4ccc(-n5c(=O)c6c(ncn6C)n(C)c5=O)cc4)C(=O)O)c(F)c3)cc2)ccn1 [Example 74, N-[2,6-Difluoro-4-({[4-(2-methylpyridin-4-yl)phenyl]sulfonyl}amino)benzoyl]-4-(3,7-dimethyl-2,6-dioxo-2,3,6,7-tetrahydro-1H-purin-1-yl)-L-phenylalanine] | 520 | 1300 | 0.39 | 11
Cn1cnc2c1c(=O)n(-c1ccc(C[C@H](NC(=O)c3c(F)cc(NS(=O)(=O)c4ccc(-c5ccncc5)cc4)cc3F)C(=O)O)cc1)c(=O)n2C [Example 75, N-(2,6-Difluoro-4-{[(4-pyridin-4-yl-phenyl)sulfonyl]amino}benzoyl)-4-(3,7-dimethyl-2,6-dioxo-2,3,6,7-tetrahydro-1H-purin-1-yl)-L-phenylalanine] | 310 | 820 | 0.38 | 4.2
Cn1cnc2c1c(=O)n(-c1ccc(C[C@H](NC(=O)c3c(F)cc(NS(=O)(=O)c4ccc(-c5ncccn5)cc4)cc3F)C(=O)O)cc1)c(=O)n2C [Example 77, N-(2,6-Difluoro-4-{[(4-pyrimidin-2-yl-phenyl)sulfonyl]amino}benzoyl)-4-(3,7-dimethyl-2,6-dioxo-2,3,6,7-tetrahydro-1H-purin-1-yl)-L-phenylalanine] | 150 | 560 | 0.27 | 9.1

Further lines, results first:

IC50 (α4β1 integrin) [nM] | Selectivity (α4β7 integrin [1]) | IC50 (α4β7 integrin [1]) [nM] | IC50 (α4β7 integrin [2]) [nM] | Compound
420 | 750 | 0.56 | 9.7 | Cc1cnccc1-c1ccc(S(=O)(=O)Nc2cc(F)c(C(=O)N[C@@H](Cc3ccc(-n4c(=O)c5ccncc5n(C)c4=O)cc3)C(=O)O)c(F)c2)cc1 [Example 65, N-[2,6-Difluoro-4-({[4-(3-methylpyridin-4-yl)phenyl]sulfonyl}amino)benzoyl]-4-(1-methyl-2,4-dioxo-1,4-dihydropyrido[3,4-d]pyrimidin-3(2H)-yl)-L-phenylalanine]
280 | 180 | 1.6 | 24 | Cn1c(=O)n(-c2ccc(C[C@H](NC(=O)c3c(F)cc(NS(=O)(=O)c4ccc(-c5ccoc5)cc4)cc3F)C(=O)O)cc2)c(=O)c2ccncc21 [Example 66, N-[2,6-Difluoro-4-({[4-(3-furyl)phenyl]sulfonyl}amino)benzoyl]-4-(1-methyl-2,4-dioxo-1,4-dihydropyrido[3,4-d]pyrimidin-3(2H)-yl)-L-phenylalanine]
210 | 380 | 0.55 | 11 | Cn1c(=O)n(-c2ccc(C[C@H](NC(=O)c3c(F)cc(NS(=O)(=O)c4ccc(-c5ccncc5)cc4)cc3F)C(=O)O)cc2)c(=O)c2ccncc21 [Example 67, N-(2,6-Difluoro-4-{[(4-pyridin-4-yl-phenyl)sulfonyl]amino}benzoyl)-4-(1-methyl-2,4-dioxo-1,4-dihydropyrido[3,4-d]pyrimidin-3(2H)-yl)-L-phenylalanine]
410 | 430 | 0.95 | 6.5 | Cn1ccc(=O)n(-c2ccc(C[C@H](NC(=O)c3c(F)cc(NS(=O)(=O)c4ccc(-n5ccnn5)cn4)cc3F)C(=O)O)cc2)c1=O [Example 73, N-[2,6-Difluoro-4-({[5-(1H-1,2,3-triazol-1-yl)pyridin-2-yl]sulfonyl}amino)benzoyl]-4-(3-methyl-2,6-dioxo-3,6-dihydropyrimidin-1(2H)-yl)-L-phenylalanine]
910 | 410 | 2.2 | 22 | Cn1cnc2c1c(=O)n(-c1ccc(C[C@H](NC(=O)c3c(F)cc(NS(=O)(=O)c4ccc(-n5cccc5)cc4)cc3F)C(=O)O)cc1)c(=O)n2C [Example 76, N-[2,6-Difluoro-4-({[4-(1H-pyrrol-1-yl)phenyl]sulfonyl}amino)benzoyl]-4-(3,7-dimethyl-2,6-dioxo-2,3,6,7-tetrahydro-1H-purin-1-yl)-L-phenylalanine]
370 | 470 | 0.79 | 19 | COc1ccc2c(c1)c(=O)n(-c1ccc(C[C@H](NC(=O)c3c(F)cc(NS(=O)(=O)c4ccc(C(=O)NC5CC5)cc4)cc3F)C(=O)O)cc1)c(=O)n2C [Example 78, N-{4-[({4-[(Cyclopropylamino)carbonyl]phenyl}sulfonyl)amino]-2,6-difluorobenzoyl}-4-(6-methoxy-1-methyl-2,4-dioxo-1,4-dihydroquinazolin-3(2H)-yl)-L-phenylalanine]
